Measurements reported in patent publication US20070004633A1, “Use of peptidic conjugates for preparing compositions for alopecia preventive and curative treatment” (priority 2003, published 2007).
Lipoyl = N-lipoyl

Test system: anagen-phase hair follicles of mouse vibrissae
Test: Growth of mouse vibrissae in vitro (anagen-phase hair follicle culture, technique of Philpott)
Assay type: cell-based
Set-up: unit not given here
Conditions: peptide 10^−7 M, cultured mouse vibrissae follicles
Procedure: Effects of the Various Peptides on the Growth of Mouse Vibrissae In Vitro
In order to show the stimulatory effect of the peptides on hair growth, anagen-phase hair follicles of mouse vibrissae are cultured according to the technique described by Philpott (Philpott et al. 1994, Human Hair growth in vitro: a model for the study of hair biology. Journal of dermatological science 7; S55-S72). The growth of the hair follicle shaft was followed for several days (D0 to D4). The results are reported in the table below for the peptides R, S and V described above.

Row | Substance | growth of the hair follicle shaft (D0) | growth of the hair follicle shaft (D1) | growth of the hair follicle shaft (D2) | growth of the hair follicle shaft (D3) | growth of the hair follicle shaft (D4)
1 | Ac-Lys-Gly-His-Lys-NH2 (Ac-KGHK-NH2) [Peptide V] | 0.00 | 0.86 | 1.34 | 1.65 | 1.65
2 | H-Gly-His-Lys-OH [Peptide R] | 0.00 | 0.8 | 1.27 | 1.38 | 1.38
3 | Lipoyl-Lys-Gly-His-Lys-NH2 (Lipoyl-KGHK-NH2) [Peptide S] | 0.00 | 0.77 | 1.47 | 1.72 | 1.86
